The values that follow come from patent US20060074035A1, “Dinucleotide inhibitors of de novo RNA polymerases for treatment or prevention of viral infections” (priority 2002, published 2006).

Holding throughout (format): biochemical
The target in one experiment is T1, HCV NS5B (Hepatitis C virus genotype 1a, UniProt P27958).
T1 construct: a particularly preferred RNA polymerases is the HCV NS5B polypeptide
Briefly: HCV NS5B de novo initiation assay, GTP as initiation nucleotide. The source says: (§1) In vitro RNA-dependent RNA polymerase assay was used to evaluate activity of dinucleotide compounds as inhibitors of HCV polymerase. Examples of such compounds are illustrated below as compounds A and B in.

Experiment [1] deals with T2, HCV polymerase (Hepatitis C virus genotype 1a, UniProt P27958).
T2 construct: a particularly preferred RNA polymerases is the HCV NS5B polypeptide
Briefly: GpG dinucleotide-primed RNA synthesis. The following applies: dinucleotide primer GpG; RNA template 5′ AAAAAAAACC 3′; FIG. 4. The source says: (§2) It was also observed that certain dinucleotide analogues were able to inhibit dinucleotide-primed RNA synthesis. […] Furthermore, this inhibitory activity is sequence specific. When a different dinucleotide primer (GpG) was used to prime RNA synthesis from the. […] These observations further support the model that base pairing capability between the dinucleotide compound and the template terminal bases is important for achieving sufficient inhibition of HCV polymerase.

The target in experiment [2] is T2, HCV polymerase. The experiment is described as follows: GpC dinucleotide-primed RNA synthesis.
Source text: as §2

Experiment [3] deals with T2, HCV polymerase. Briefly: HCV NS5B de novo initiation assay, ATP as initiation nucleotide. As for the experimental part: as §1
To further determine whether this inhibitory effect of HCV polymerase is specific for a particular initiation nucleotide, de novo initiation assay was performed using ATP as the initiation nucleotide (template RNA: 5′ AAAAAAAAGU 3′).

Molecules are shown by their SMILES.

T2 sequence (P27958 2421-3011): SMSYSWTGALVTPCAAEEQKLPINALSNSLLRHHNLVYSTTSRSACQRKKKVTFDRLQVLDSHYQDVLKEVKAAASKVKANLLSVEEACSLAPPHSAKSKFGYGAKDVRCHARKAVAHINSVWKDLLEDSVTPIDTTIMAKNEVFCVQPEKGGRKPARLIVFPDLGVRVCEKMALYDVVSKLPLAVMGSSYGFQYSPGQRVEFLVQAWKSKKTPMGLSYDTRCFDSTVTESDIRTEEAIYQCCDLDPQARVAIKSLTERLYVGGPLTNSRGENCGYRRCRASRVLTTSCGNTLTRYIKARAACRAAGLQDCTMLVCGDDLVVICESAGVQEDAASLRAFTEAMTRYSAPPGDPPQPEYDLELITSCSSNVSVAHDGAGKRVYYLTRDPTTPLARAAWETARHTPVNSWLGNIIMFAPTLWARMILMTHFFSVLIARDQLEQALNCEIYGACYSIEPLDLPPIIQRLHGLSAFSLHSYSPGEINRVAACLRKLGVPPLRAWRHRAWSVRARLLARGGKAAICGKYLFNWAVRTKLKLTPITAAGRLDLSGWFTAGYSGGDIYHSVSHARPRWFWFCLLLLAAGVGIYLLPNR
T1 sequence (P27958 2421-3011): as above

In general, IC50 refers to the point on the concentration scale where inhibition reaches its midpoint. Read a high IC50 as lower potency. As for `COC1C(OP(O)(=S)OCC2CC(O)C(n3ccc(N)nc3=O)O2)C(COP(=O)(O)O)OC1n1cnc2c(=O)[nH]c(N)nc21` (stereo not shown) [compound A], the results for the IC50 against HCV NS5B, against HCV polymerase [2] and on HCV polymerase [3] were 20 µM, 50 µM and approximately 90 µM, respectively. On HCV polymerase [1], the “inhibition of polymerase activity (GpG-primed RNA synthesis)” value is reported as “lost the ability to inhibit the polymerase activity”.
In the case of `COC1[C@@H](COP(O)(=S)OC2[C@@H](COP(=O)(O)O)O[C@@H](n3cnc4c(=O)[nH]c(N)nc43)[C@H]2OC)O[C@@H](n2ccc(N)nc2=O)[C@H]1O` (stereo partly shown) [compound B], the values for the IC50 on HCV NS5B and on HCV polymerase [2] were 65 µM and approximately 80 µM, respectively. Also, on HCV polymerase [1], the “inhibition of polymerase activity (GpG-primed RNA synthesis)” value was “lost the ability to inhibit the polymerase activity”.
